A short description of one data set: Solubility in PBS. The data set is classed as physicochemical. An outline of the steps:
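Steps: ultracentrifuge the peptide PBS solution, inject the supernatant on HPLC, inject a 50 μM peptide DMSO solution as reference, then calculate solubility as area ratio (PBS/DMSO) × 50 uM.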

The target in data set [1] is T1, beta-catenin/TCF4 engagement (Homo sapiens, UniProt P35222).
T1 construct: expressed in transfected cells; host or cells: HEK293
T1 sequence (P35222 1-781): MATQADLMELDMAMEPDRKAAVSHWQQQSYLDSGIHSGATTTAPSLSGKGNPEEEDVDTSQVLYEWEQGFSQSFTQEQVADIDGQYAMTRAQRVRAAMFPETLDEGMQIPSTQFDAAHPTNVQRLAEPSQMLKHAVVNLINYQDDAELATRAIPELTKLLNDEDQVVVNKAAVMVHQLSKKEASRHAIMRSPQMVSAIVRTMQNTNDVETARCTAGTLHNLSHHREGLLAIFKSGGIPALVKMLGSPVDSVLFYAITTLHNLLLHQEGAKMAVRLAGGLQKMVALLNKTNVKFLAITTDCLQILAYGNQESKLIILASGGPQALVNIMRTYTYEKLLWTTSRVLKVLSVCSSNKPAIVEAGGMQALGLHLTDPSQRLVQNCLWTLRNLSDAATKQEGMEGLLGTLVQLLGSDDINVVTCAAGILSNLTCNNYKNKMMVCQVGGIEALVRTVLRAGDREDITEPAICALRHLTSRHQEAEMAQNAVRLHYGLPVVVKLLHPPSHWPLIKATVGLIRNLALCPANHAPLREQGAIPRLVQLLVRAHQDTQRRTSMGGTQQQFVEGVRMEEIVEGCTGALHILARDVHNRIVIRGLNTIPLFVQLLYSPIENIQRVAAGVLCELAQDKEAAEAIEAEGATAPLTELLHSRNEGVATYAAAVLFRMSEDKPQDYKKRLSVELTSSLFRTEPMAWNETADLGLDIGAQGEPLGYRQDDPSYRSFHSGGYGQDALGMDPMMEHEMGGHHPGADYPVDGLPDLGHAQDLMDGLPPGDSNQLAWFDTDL
The data set is described as follows: Nano-BRET target engagement assay (B-cat-Halo & TCF4-Luc in HEK293 cells). The note with it: absolute IC50; read-out: NanoBRET Abs IC50. The data set is classed as cell-based. In general terms: BRET reads energy transfer from a luciferase to a nearby fluorophore.

In data set [2] the target is T2, full-length beta-Catenin (Uniprot ID P35222) (Homo sapiens, UniProt P35222).
T2 construct: 10 nM full-length beta-Catenin (Uniprot ID P35222)
T2 sequence (P35222 1-781): T1 sequence (P35222 1-781)
In words: Fluorescence polarization IC50 (beta-catenin / 5FAM-TCF4 10-53 competition). The note with it: read-out: beta-Catenin FP IC50. The data set is classed as binding. A general note: Polarisation of emitted light reports the rotation of a fluorescent probe.

Converted amounts (≈) assume the structure as drawn. Like-named read-outs stand apart in the source and are kept apart here.

Consider twelve compounds from US20240116985A1, “STAPLED PEPTIDES AND METHODS THEREOF” (priority 2020, published 2024).

By Solubility is commonly meant how much of the substance goes into solution per volume. As usually defined, the IC50 is the concentration needed to halve the response being measured. In “Solubility in PBS” (Solubility (uM)), `CC(=O)N1CCC[C@]12CC=CCCCC1(CCCC=CCCCOC(=O)N3CC[C@@](C(=O)N[C@@H](Cc4ccccc4Cl)C(=O)N[C@@H](Cc4csc5ccccc45)C(=O)N[C@@H](CCCCNC(C)C)C(N)=O)(C3)NC(=O)[C@H](CC(N)=O)NC(=O)[C@H](Cc3ccccc3)NC(=O)[C@H](C)NC(=O)[C@H](C)NC(=O)[C@H](CC(=O)O)NC(=O)[C@H](CC(=O)O)NC1=O)NC(=O)[C@H](CC(C)(C)C)NC(=O)[C@H](CC(=O)O)NC2=O` (stereo partly drawn) [I-1130, Ac-PL3-Asp-Npg-B5-Asp-Asp-Ala-Ala-Phe-Asn-PyrS2-2C1F-BztA-iPrLys-NH2] yielded a Solubility of 15 µM (≈ 29.8 µg/mL). Moreover, the IC50 came out at 7600 nM in data set [1] and 6 nM in data set [2].
As for `CC(=O)N1CCC[C@]12CC=CCCCC1(CCCC=CCCCOC(=O)N3CC[C@@](C(=O)N[C@@H](Cc4ccccc4Cl)C(=O)N[C@@H](Cc4csc5ccccc45)C(=O)N[C@@H](CCC(N)=O)C(N)=O)(C3)NC(=O)[C@H](CC(N)=O)NC(=O)[C@H](Cc3ccccc3)NC(=O)[C@H](C)NC(=O)[C@H](CCCCNC(C)C)NC(=O)[C@H](CC(=O)O)NC(=O)[C@H](CC(=O)O)NC1=O)NC(=O)[C@H](CC(C)(C)C)NC(=O)[C@H](CC(=O)O)NC2=O` (stereo partly drawn) [I-1131, Ac-PL3-Asp-Npg-B5-Asp-Asp-iPrLys-Ala-Phe-Asn-PyrS2-2C1F-BztA-Gln-NH2], in “Solubility in PBS” (Solubility (uM)), the Solubility was 39 µM (≈ 79.8 µg/mL). Also, the IC50 amounted to 18800 nM in data set [1] and 7 nM in data set [2].
`CC(=O)N1CCC[C@]12CC=CCCCC1(CCCC=CCCCOC(=O)N3CC[C@@](C(=O)N[C@@H](Cc4ccccc4Cl)C(=O)N[C@@H](Cc4csc5ccccc45)C(=O)N[C@@H](CCC(N)=O)C(N)=O)(C3)NC(=O)[C@H](CC(N)=O)NC(=O)[C@H](Cc3ccccc3)NC(=O)[C@H](CCCCNC(C)C)NC(=O)[C@H](C)NC(=O)[C@H](CC(=O)O)NC(=O)[C@H](CC(=O)O)NC1=O)NC(=O)[C@H](CC(C)(C)C)NC(=O)[C@H](CC(=O)O)NC2=O` (stereo partly drawn) [I-1132, Ac-PL3-Asp-Npg-B5-Asp-Asp-Ala-iPrLys-Phe-Asn-PyrS2-2C1F-BztA-Gln-NH2] came in with a Solubility in the data set “Solubility in PBS” (Solubility (uM)) of 49 µM (≈ 100 µg/mL). The results for the IC50 in data set [1] and in data set [2] were more than 20000 nM and 21 nM, respectively.
Consider `CC(=O)N1CCC[C@]12CC=CCCCC1(CCCC=CCCCOC(=O)N3CC[C@@](C(=O)N[C@@H](Cc4ccccc4Cl)C(=O)N[C@@H](Cc4csc5ccccc45)C(=O)N[C@@H](C(N)=O)[C@H](C)O)(C3)NC(=O)[C@H](CO)NC(=O)[C@H](Cc3ccccc3)NC(=O)[C@H](C)NC(=O)[C@H](C)NC(=O)[C@H](CC(=O)O)NC(=O)[C@H](CC(=O)O)NC1=O)NC(=O)[C@H](CC1CCCCC1)NC(=O)[C@H](CC(=O)O)NC2=O` (stereo partly drawn) [I-1136, Ac-PL3-Asp-Cha-B5-Asp-Asp-Ala-Ala-Phe-Ser-PyrS2-2C1F-BztA-dThr-NH2], for which, in the data set “Solubility in PBS” (Solubility (uM)), the concentration in solution (Solubility) was 40 µM (≈ 76.7 µg/mL). In addition, the IC50 turned out to be 14900 nM in data set [1] and 16 nM in data set [2] (fluorescence polarization).
Turning to `CC(=O)N1CCC[C@]12CC=CCCCC1(CCCC=CCCCOC(=O)N3CC[C@@](C(=O)N[C@@H](Cc4ccccc4Cl)C(=O)N[C@@H](Cc4csc5ccccc45)C(=O)N[C@@H](C(N)=O)[C@H](C)O)(C3)NC(=O)[C@H](CC(C)C)NC(=O)[C@H](Cc3ccccc3)NC(=O)[C@H](C)NC(=O)[C@H](C)NC(=O)[C@H](CC(=O)O)NC(=O)[C@H](CC(=O)O)NC1=O)NC(=O)[C@H](CC1CCCCC1)NC(=O)[C@H](CC(=O)O)NC2=O` (stereo partly drawn) [I-1140, Ac-PL3-Asp-Cha-B5-Asp-Asp-Ala-Ala-Phe-Leu-PyrS2-2C1F-BztA-dThr-NH2], in “Solubility in PBS”, the “Solubility” value stood at 10 µM (≈ 19.4 µg/mL). Further, the IC50 turned out to be 32500 nM in data set [1] and 33 nM in data set [2] (fluorescence polarization).
As for `CC(=O)N1CCC[C@]12CC=CCCCC1(CCCC=CCCCOC(=O)N3CC[C@@](C(=O)N[C@@H](Cc4ccccc4Cl)C(=O)N[C@@H](Cc4csc5ccccc45)C(=O)N[C@H](C(N)=O)[C@@H](C)O)(C3)NC(=O)[C@H](CO)NC(=O)[C@H](Cc3ccccc3)NC(=O)[C@H](C)NC(=O)[C@H](C)NC(=O)[C@H](CC(=O)O)NC(=O)[C@H](CC(=O)O)NC1=O)NC(=O)[C@H](Cc1ccccc1)NC(=O)[C@H](CC(=O)O)NC2=O` (stereo partly drawn) [I-1141, Ac-PL3-Asp-Phe-B5-Asp-Asp-Ala-Ala-Phe-Ser-PyrS2-2C1F-BztA-Thr-NH2], in the data set “Solubility in PBS” (Solubility (uM)), the Solubility was 44 µM (≈ 84.2 µg/mL). For the same compound, the IC50 worked out at 27300 nM in data set [1] and 13 nM in data set [2] (fluorescence polarization).
Regarding `CC(=O)N1CCC[C@]12CC=CCCCC1(CCCC=CCCCOC(=O)N3CC[C@@](C(=O)N[C@@H](Cc4ccccc4Cl)C(=O)N[C@@H](Cc4csc5ccccc45)C(=O)N[C@@H](C(N)=O)[C@H](C)O)(C3)NC(=O)[C@H](CO)NC(=O)[C@H](Cc3ccccc3)NC(=O)[C@H](C)NC(=O)[C@H](C)NC(=O)[C@H](CC(=O)O)NC(=O)[C@H](CC(=O)O)NC1=O)NC(=O)[C@H](Cc1ccccc1)NC(=O)[C@H](CC(=O)O)NC2=O` (stereo partly drawn) [I-1142, Ac-PL3-Asp-Phe-B5-Asp-Asp-Ala-Ala-Phe-Ser-PyrS2-2C1F-BztA-dThr-NH2], the concentration in solution in “Solubility in PBS” (Solubility (uM)) (Solubility) was 46 µM (≈ 88 µg/mL). For the same compound, the IC50 is more than 20000 nM in data set [1] and 22 nM in data set [2] (fluorescence polarization).
In “Solubility in PBS” (Solubility (uM)), `CC(=O)N1CCC[C@]12CC=CCCCC1(CCCC=CCCCOC(=O)N3CC[C@@](C(=O)N[C@@H](Cc4ccccc4Cl)C(=O)N[C@@H](Cc4csc5ccccc45)C(=O)N[C@@H](CCO)C(N)=O)(C3)NC(=O)[C@H](CO)NC(=O)[C@H](Cc3ccccc3)NC(=O)[C@H](C)NC(=O)[C@H](C)NC(=O)[C@H](CC(=O)O)NC(=O)[C@H](CC(=O)O)NC1=O)NC(=O)[C@H](Cc1ccccc1)NC(=O)[C@H](CC(=O)O)NC2=O` (stereo partly drawn) [I-1143, Ac-PL3-Asp-Phe-B5-Asp-Asp-Ala-Ala-Phe-Ser-PyrS2-2C1F-BztA-Hse-NH2] came in with a Solubility of 44 µM (≈ 84.2 µg/mL). Moreover, the IC50 in data set [1] came out at 33100 nM; in data set [2] (fluorescence polarization), 12 nM.
For `CC(=O)N1CCC[C@]12CC=CCCCC1(CCCC=CCCCOC(=O)N3CC[C@@](C(=O)N[C@@H](Cc4ccccc4Cl)C(=O)N[C@@H](Cc4csc5ccccc45)C(=O)N[C@H](C(N)=O)[C@@H](C)O)(C3)NC(=O)[C@H](CC(C)C)NC(=O)[C@H](Cc3ccccc3)NC(=O)[C@H](C)NC(=O)[C@H](C)NC(=O)[C@H](CC(=O)O)NC(=O)[C@H](CC(=O)O)NC1=O)NC(=O)[C@H](Cc1ccccc1)NC(=O)[C@H](CC(=O)O)NC2=O` (stereo partly drawn) [I-1145, Ac-PL3-Asp-Phe-B5-Asp-Asp-Ala-Ala-Phe-Leu-PyrS2-2C1F-BztA-Thr-NH2], in the data set “Solubility in PBS”, the “Solubility” value stood at 10 µM (≈ 19.4 µg/mL). For the same compound, the figures for the IC50 in data set [1] and in data set [2] (fluorescence polarization) were 30600 nM and 18 nM, respectively.
Compound `CC(=O)N1CCC[C@]12CC=CCCCC1(CCCC=CCCCOC(=O)N3CC[C@@](C(=O)N[C@@H](Cc4ccccc4Cl)C(=O)N[C@@H](Cc4csc5ccccc45)C(=O)N[C@@H](C(N)=O)[C@H](C)O)(C3)NC(=O)[C@H](CC(C)C)NC(=O)[C@H](Cc3ccccc3)NC(=O)[C@H](C)NC(=O)[C@H](C)NC(=O)[C@H](CC(=O)O)NC(=O)[C@H](CC(=O)O)NC1=O)NC(=O)[C@H](Cc1ccccc1)NC(=O)[C@H](CC(=O)O)NC2=O` (stereo partly drawn) [I-1146, Ac-PL3-Asp-Phe-B5-Asp-Asp-Ala-Ala-Phe-Leu-PyrS2-2C1F-BztA-dThr-NH2] came in with a Solubility in “Solubility in PBS” (Solubility (uM)) of 18 µM (≈ 34.9 µg/mL). Also, the values for the IC50 in data set [1] and in data set [2] (fluorescence polarization) were more than 20000 nM and 33 nM, respectively.
For `CC(=O)N1CCC[C@]12CC=CCCCC1(CCCC=CCCCOC(=O)N3CC[C@@](C(=O)N[C@@H](Cc4ccccc4Cl)C(=O)N[C@@H](Cc4csc5ccccc45)C(=O)N[C@@H](CCC(N)=O)C(N)=O)(C3)NC(=O)[C@H](CO)NC(=O)[C@H](Cc3ccccc3)NC(=O)[C@H](C)NC(=O)[C@H](CC(C)C)NC(=O)[C@H](CC(=O)O)NC(=O)[C@H](CC(=O)O)NC1=O)NC(=O)[C@H](CC1CCCCC1)NC(=O)[C@H](CC(=O)O)NC2=O` (stereo partly drawn) [I-1147, Ac-PL3-Asp-Cha-B5-Asp-Asp-Leu-Ala-Phe-Ser-PyrS2-2C1F-BztA-Gln-NH2] the same measures were 23 µM (≈ 45.7 µg/mL), 21100 nM and 10 nM.
Consider `CC(=O)N1CCC[C@]12CC=CCCCC1(CCCC=CCCCOC(=O)N3CC[C@@](C(=O)N[C@@H](Cc4ccccc4Cl)C(=O)N[C@@H](Cc4csc5ccccc45)C(=O)N[C@@H](CCC(N)=O)C(N)=O)(C3)NC(=O)[C@H](CO)NC(=O)[C@H](Cc3ccccc3)NC(=O)[C@H](CC(C)C)NC(=O)[C@H](C)NC(=O)[C@H](CC(=O)O)NC(=O)[C@H](CC(=O)O)NC1=O)NC(=O)[C@H](CC1CCCCC1)NC(=O)[C@H](CC(=O)O)NC2=O` (stereo partly drawn) [I-1148, Ac-PL3-Asp-Cha-B5-Asp-Asp-Ala-Leu-Phe-Ser-PyrS2-2C1F-BztA-Gln-NH2], for which, in “Solubility in PBS”, the “Solubility” value turned out to be 10 µM (≈ 19.9 µg/mL). The IC50 stood at 21500 nM in data set [1] and 50 nM in data set [2] (fluorescence polarization).
